Earlier results, collected in patent US4716040A, “Controlled absorption methyldopa pharmaceutical formulation” (Elan Corporation P.L.C., priority 1983, dated 1987).

Experiments:
[1] = test system: decarboxylation of dopa to dopamine

C[C@](N)(Cc1ccc(O)c(O)c1)C(=O)O [methyldopa, 3-hydroxy-α-methyl-L-tyrosine]
decarboxylation of dopa to dopamine [1]: inhibits
oedema (hypertension; methyldopa therapy): sometimes observed
effect on standing and supine blood pressure (hypertension; moderate to severe hypertension): reducing the standing blood pressure and also reduces the supine blood pressure
maximum hypotensive effect may not occur until (hypertension; oral): second day of treatment
onset of effects after oral administration (hypertension; oral): about 2 hours
some effect still usually apparent after a dose (hypertension; oral): 24 h
unchanged methyldopa in urine (of the methyldopa eliminated in the urine): about 25%
fraction of oral dose absorbed (oral): about one half
metabolites in urine (remainder of the methyldopa eliminated in the urine): mainly a mono-O-sulphate of methyldopa
